Assay [1] has as its target recombinant GST-tagged MDM2 (Homo sapiens, UniProt Q00987). Put plainly: HTRF assay of interaction between p53 peptide and GST-tagged MDM2. The conditions noted are these: inhibition of GST-MDM2 (160 ng/ml) binding to biotinylated p53-peptide. On the procedure: The ability of a test compound to inhibit the interaction between p53 and MDM2 protein was measured by an HTRF (homogeneous time-resolved fluorescence) assay in which recombinant GST-tagged MDM2 binds to a peptide that resembles the MDM2-interacting region of p53 Aca-[…]-OH hereinafter p53-peptide). Binding of GST-MDM2 protein and p53-peptide (biotinylated on its N-terminal end) is registered by the FRET (fluorescence resonance energy transfer) between Europium (Eu)-labeled anti-GST antibody and streptavidin-conjugated Allophycocyanin (APC).
The test was performed in black flat-bottom 384-well plates (Costar) in a total volume of 40 uL containing: 90 nM biotinylated peptide, 160 ng/ml GST-MDM2, 20 nM streptavidin-APC (PerkinElmerWallac), 2 nM Eu-labeled anti-GST-antibody (PerkinElmerWallac), 0.02% bovine serum albumin (BSA), 1 mM dithiothreitol (DTT) and 20 mM […] (TBS) buffer as follows: add 10 uL of GST-MDM2 (640 ng/ml working solution) in reaction buffer to each well. Add 10 uL diluted compounds (1:5 dilution in reaction buffer) to each well, mix by shaking. Add 20 uL biotinylated p53 peptide (180 nM working solution) in reaction buffer to each well and mix on shaker. Incubate at 37° C. for 1 h. Add […] streptavidin-APC and Eu-anti-GST antibody mixture (6 nM Eu-anti-GST and 60 nM streptavidin-APC working solution) in TBS buffer with 0.02% BSA, shake at room temperature for 30 minutes and read using a TRF-capable plate reader at 665 and 615 nm (Victor 5, Perkin ElmerWallac). If not specified, the reagents were purchased from Sigma Chemical Co.

Assay [2] deals with T1, GST-tagged MDMX (Homo sapiens, UniProt O15151).
T1 sequence (O15151 1-490): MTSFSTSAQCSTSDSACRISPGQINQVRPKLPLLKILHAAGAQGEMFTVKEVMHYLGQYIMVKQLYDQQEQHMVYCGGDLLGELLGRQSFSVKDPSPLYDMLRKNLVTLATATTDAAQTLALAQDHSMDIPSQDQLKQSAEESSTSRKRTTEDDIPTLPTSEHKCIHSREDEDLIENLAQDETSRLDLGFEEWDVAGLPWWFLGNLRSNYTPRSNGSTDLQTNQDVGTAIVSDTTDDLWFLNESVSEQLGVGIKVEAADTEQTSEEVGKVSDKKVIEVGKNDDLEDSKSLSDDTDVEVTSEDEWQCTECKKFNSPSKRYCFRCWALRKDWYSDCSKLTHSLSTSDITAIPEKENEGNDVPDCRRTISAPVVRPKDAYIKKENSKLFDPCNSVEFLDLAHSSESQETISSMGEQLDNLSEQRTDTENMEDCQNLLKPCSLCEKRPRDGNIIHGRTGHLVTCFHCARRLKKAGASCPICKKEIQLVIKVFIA
Put plainly: HTRF binding assay of GST-tagged MDMX to p53 peptide.

SMILES strings stand for the structures.

Chain of recombinant GST-tagged MDM2 (Q00987 whole entry): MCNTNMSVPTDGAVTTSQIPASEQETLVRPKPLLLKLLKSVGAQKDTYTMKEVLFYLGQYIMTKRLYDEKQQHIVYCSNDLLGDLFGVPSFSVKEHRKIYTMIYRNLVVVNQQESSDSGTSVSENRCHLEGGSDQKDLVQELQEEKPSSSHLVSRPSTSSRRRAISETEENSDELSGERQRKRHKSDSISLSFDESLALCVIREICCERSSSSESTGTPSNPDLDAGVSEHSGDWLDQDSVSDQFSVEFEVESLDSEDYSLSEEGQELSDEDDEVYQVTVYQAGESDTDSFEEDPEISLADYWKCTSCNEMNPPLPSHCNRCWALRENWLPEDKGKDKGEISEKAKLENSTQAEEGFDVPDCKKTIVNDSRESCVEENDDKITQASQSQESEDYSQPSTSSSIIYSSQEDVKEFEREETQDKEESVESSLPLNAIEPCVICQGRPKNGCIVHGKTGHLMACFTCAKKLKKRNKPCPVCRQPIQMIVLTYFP

On to `CCOc1cc(Cl)c(S(=O)(=O)NC(C)(C)C)cc1C1=N[C@@](C)(c2ccc(Cl)cc2)[C@@](C)(c2ccc(Cl)cc2)N1C(=O)N1CCN(CC(=O)NCC2CCCO2)CC1` (mixture of isomers) [Example 48, 2-{4-[(4S,5R)-2-(5-tert-Butylsulfamoyl-4-chloro-2-ethoxy-phenyl)-4,5-bis-(4-chloro-phenyl)-4,5-dimethyl-4,5-dihydro-imidazole-1-carbonyl]-piperazin-1-yl}-N-(tetrahydro-furan-2-ylmethyl)-acetamide], for which the IC50 in assay [1] is 11.7 nM; in assay [2], 1330 nM.
As for `CCOc1cc(Cl)c(S(C)(=O)=O)cc1C1=N[C@@](C)(c2ccc(Cl)cc2)[C@@](C)(c2ccc(Cl)cc2)N1C(=O)N1CCC(CC(N)=O)CC1` (racemic) [Example 5, 2-{1-[(4S,5R)-2-(4-Chloro-2-ethoxy-5-methanesulfonyl-phenyl)-4,5-bis-(4-chloro-phenyl)-4,5-dimethyl-4,5-dihydro-imidazole-1-carbonyl]-piperidin-4-yl}-acetamide], the IC50 in assay [1] was found to be 15.3 nM; in assay [2], 3660 nM.
For `CCOc1cc(Cl)c(S(C)(=O)=O)cc1C1=N[C@@](C)(c2ccc(Cl)cc2)[C@@](C)(c2ccc(Cl)cc2)N1C(=O)N1CCNC(=O)C1` [Example 2, 4-[(4S,5R)-2-(4-Chloro-2-ethoxy-5-methanesulfonyl-phenyl)-4,5-bis-(4-chloro-phenyl)-4,5-dimethyl-4,5-dihydro-imidazole-1-carbonyl]-piperazin-2-one] the same measures were 5.7 nM and 1080 nM.
On to `CCOc1cc(Cl)c(S(C)(=O)=O)cc1C1=N[C@@](C)(c2ccc(Cl)cc2)[C@@](C)(c2ccc(Cl)cc2)N1C(=O)N1CCN(C[C@H](O)CO)CC1` [Example 3, [(4S,5R)-2-(4-Chloro-2-ethoxy-5-methanesulfonyl-phenyl)-4,5-bis-(4-chloro-phenyl)-4,5-dimethyl-4,5-dihydro-imidazol-1-yl]-[4-((S)-2,3-dihydroxy-propyl)-piperazin-1-yl]-methanone], for which the results for the IC50 in assay [1] and in assay [2] were 5.4 nM and 1140 nM, respectively.
With `CCOc1cc(Cl)c(S(C)(=O)=O)cc1C1=N[C@@](C)(c2ccc(Cl)cc2)[C@@](C)(c2ccc(Cl)cc2)N1C(=O)N1CCN(CC[C@H](O)CO)C(=O)C1` [Example 4, 4-[(4S,5R)-2-(4-Chloro-2-ethoxy-5-methanesulfonyl-phenyl)-4,5-bis-(4-chloro-phenyl)-4,5-dimethyl-4,5-dihydro-imidazole-1-carbonyl]-1-((S)-3,4-dihydroxy-butyl)-piperazin-2-one], the values for the IC50 in assay [1] and in assay [2] were 5.4 nM and 1730 nM, respectively.
For `CCOc1cc(Cl)c(S(C)(=O)=O)cc1C1=N[C@@](C)(c2ccc(Cl)cc2)[C@@](C)(c2ccc(Cl)cc2)N1C(=O)N1CCN(CC(N)=O)CC1` [Example 6, 2-{4-[(4S,5R)-2-(4-Chloro-2-ethoxy-5-methanesulfonyl-phenyl)-4,5-bis-(4-chloro-phenyl)-4,5-dimethyl-4,5-dihydro-imidazole-1-carbonyl]-piperazin-1-yl}-acetamide], the values for the IC50 in assay [1] and in assay [2] were 6.6 nM and 1210 nM, respectively.
With `CCOc1cc(Cl)c(S(C)(=O)=O)cc1C1=N[C@@](C)(c2ccc(Cl)cc2)[C@@](C)(c2ccc(Cl)cc2)N1C(=O)N1CCN(S(C)(=O)=O)CC1` [Example 7, [(4S,5R)-2-(4-Chloro-2-ethoxy-5-methanesulfonyl-phenyl)-4,5-bis-(4-chloro-phenyl)-4,5-dimethyl-4,5-dihydro-imidazol-1-yl]-(4-methanesulfonyl-piperazin-1-yl)-methanone], the values for the IC50 in assay [1] and in assay [2] were 6.3 nM and 2490 nM, respectively.
The matching figures for `CCOc1cc(Cl)c(S(C)(=O)=O)cc1C1=N[C@@](C)(c2ccc(Cl)cc2)[C@@](C)(c2ccc(Cl)cc2)N1C(=O)N1CCC(N)CC1` [Example 8, (4-Amino-piperidin-1-yl)-[(4S,5R)-2-(4-chloro-2-ethoxy-5-methanesulfonyl-phenyl)-4,5-bis-(4-chloro-phenyl)-4,5-dimethyl-4,5-dihydro-imidazol-1-yl]-methanone]: 4.4 nM and 1070 nM.
